Measured values from patent publication US7198945B2, “Cell having modified cell membrane” (Teruyuki Nagamune, priority 2001, dated 2007).
Entries after “also recorded” stand apart in the source; their conditions may differ.

Legend:
[1] = system: mouse fibroblast cell line NIH3T3; assay: Anchoring of conjugates to cell membranes, observed by confocal laser scanning microscope; conditions: for Anchoring to cell surface: Mouse fibroblasts NIH3T3, 37° C. for 5 min, confocal microscope, 1000 magnifications
Method: Mouse fibroblasts NIH3T3 were cultured at 37° C. under 5% CO2 concentration using Dulbecco's Modified Eagle's Medium supplemented with 10% fetal calf serum and Glass bottom Microwell Dishes (35 mm dish, Uncoated, No. 0 Coverslip). The cells were cultured until the culture was approximately 80% confluent for 20 hours to 45 hours. […] The Glass bottom Microwell Dishes with NIH3T3 cells attached thereto were rinsed with 2 mL of phosphate buffered saline (the same as described above) which was subjected to filtration sterilization beforehand. Then, 0.1 mL of the polyethylene oxide oleylether-biotin conjugate solution was added to the NIH3T3 cells attached on the glass surface and a reaction was performed at 37° C. for 5 min. After the reaction, the cells were washed twice with 2 mL of phosphate buffered saline. Then, 0.1 mL of phosphate buffered saline containing 6.7 nM streptavidin and fluorescein conjugate (Molecular Probes; Cat# S-869) (hereinafter referred to as “fluorescein-labeled streptavidin”) was added to the cells, followed by incubation at 37° C. for 20 min.
The modification of the cell membranes was verified by observing the cells under a confocal laser scanning microscope (Leica).

[2] = system: suspended cells (32D, Ba/F3 and 9E10 cells); assay: Anchoring of EGFP conjugate to suspended cells, flow cytometer; format: cell-based, mouse; set-up: Anchoring to cell surface: key to the marks not given beside the values
Method: (§1) Mouse hybridoma 9E10 was cultured at 37° C. under 5% CO2 concentration using RPMI 1640 media (“Nissui” powder, NISSUI PHARMACEUTICAL CO., LTD., Cat# 05918) supplemented with 10% fetal calf serum. […] 32D, Ba/F3 and 9E10 cells (hereinafter, generically called as “suspended cells”) were centrifuged to collect 1×10^6 cells. Each of the cell was centrifuged for washing with 13 mL of phosphate buffered saline. […] Then the cells were centrifuged for washing once with 13 mL of phosphate buffered saline, and then 1 mL of phosphate buffered saline was added to each cell pellet.
(§2) Respective treated cell suspensions were observed under a flow cytometer (Coulter, EPICS-C). […] Thus, it was verified that the polyethylene oxide oleylether-EGFP can be anchored to suspended cells.

mouse hybridoma 9E10 = assay: Flow cytometer fluorescence intensity of treated suspended cells; format: cell-based; conditions: 37° C. for 5 min
Method: as §1, §2

[3] = system: mouse pro-B cell line Ba/F3; assay: as above; format: cell-based; conditions: 37° C. for 5 min
Method: as §1, §2

[4] = system: mouse myeloid cell line 32D; assay: as above; format: cell-based; conditions: 37° C. for 5 min
Method: as §1, §2

[5] = system: Chinese hamster ovarian follicle cell line CHO; assay: Anchoring of EGFP conjugate to cell membranes, observed by confocal laser scanning microscope; format: cell-based; set-up: Anchoring to cell surface: key to the marks not given beside the values
Source text: Therefore, it was verified that the conjugate can be anchored to cells other than mouse cells.

[6] = NIH3T3, confocal laser scanning microscope

Row | Compound | fluorescence on cell membranes / anchoring (result in words) [1, 6] | Anchoring to cell surface [1] | further results
1 | NCCOCCOCCNC(=O)CCCC[C@@H]1SC[C@@H]2NC(=O)N[C@@H]21 [biotin-NH2, Biotin-PEO-Amine, reference compound] | no fluorescence from fluorescein was observed |  | 
2 | Oleic Acid-biotin [Example 15, reference compound] | no fluorescence from fluorescein was observed | − | 
3 | Polyethylene Oxide Oleylether (n=90, Average Molecular Weight of 4400)-biotin Conjugate [Example 2] |  | ++ | time in which conjugates were anchored to all of the cell membranes ([1]; NIH3T3, 37° C.): ≤ 5 min; fluorescence on cell membranes / anchoring (result in words) ([1]; NIH3T3; confocal laser scanning microscope; average molecular weight of 4400)-biotin co): fluorescence deriving from fluorescein was observed on the cell membranes of all of the cells in the field; also recorded: fluorescence from fluorescein was specifically observed only in the cell membranes; binding of biotin to streptavidin after anchoring ([1]; NIH3T3, fluorescein-labeled streptavidin): not inhibited
4 | polyethylene oxide oleylether succinate [reference compound] | no fluorescence from fluorescein was observed |  | 
5 | Polyethylene Oxide Nonylphenyl Ether (n=40, Average Molecular Weight of 2160)-biotin Conjugate [Example 17, reference compound] | no fluorescence from fluorescein was observed | − | 
6 | Amino Polyethylene Oxide Oleylether (n=90, Average Molecular Weight of 4400)-biotin Conjugate [Example 12] | remain unchanged and still excellent | ++ | 
7 | Polyethylene Oxide Oleylether (n=180; Average Molecular Weight of 8400)-biotin Conjugates [Example 9] |  | ++ | 
8 | Fluorescent-Labeled (Fluorescein)-Polyethylene Oxide-Modified Dioleoyl Phosphatidyl Ethanolamine [Example 11] | Fluorescence from fluorescein was observed on the cell membranes of all the NIH3T3 cells | ++ | 
9 | Polyethylene Oxide Oleylether (n=15; Average Molecular Weight of 1100)-biotin Conjugates [Example 7] |  | ++ | 
10 | Polyethylene Oxide Stearyl Ether (n=15: Average Molecular Weight of 1100)-biotin Conjugates [Example 10] | fluorescence from fluorescein was observed on the cell membranes of the NIH3T3 cells | + | 
11 | Polyethylene Oxide Oleylether (n=90, Average Molecular Weight of 4400)-Green Fluorescent Protein EGFP Conjugate [Example 4] | anchored to the cell membranes | ++ | Anchoring to cell surface ([2]; Suspended cell): ++; fluorescence intensity of cells compared to cells treated only with EGFP (result in words) ([2]; suspended cells, flow cytometer): an increased number of the cells with a stronger fluorescence intensity was observed; relative value of fluorescence intensity of cells (mouse hybridoma 9E10): 49.6; relative value of fluorescence intensity of cells [3]: 36.7; relative value of fluorescence intensity of cells [4]: 30.1; fluorescence from EGFP on cell membranes (result in words) ([5]; CHO cells, confocal laser scanning microscope): fluorescence from EGFP was observed on the cell membranes of all of the CHO cells; Anchoring to cell surface ([5]; Chinese hamster ovarian follicle cells CHO, confocal microscope): ++
12 | Polyethylene Oxide Oleylether (n=40; Average Molecular Weight of 2250)-biotin Conjugates [Example 8] |  | ++ | 
